What was measured:
[1] = tested on: rat conjunctiva; conditions: 0.1 % strength
Source text: This assay indicates whether a topically applied compound effectively prevents or decreases the local allergic response in the conjunctiva. This assay allows an assessment of bioavailability following topical dosing. Briefly, male Sprague Dawley rats (6/group) were passively sensitized by subconjunctival injection of a rat serum containing IgE specific for ovalbumin (OA). Twenty-four hours post sensitization, test compound prepared in saline (0.9% NaCl) or saline vehicle was applied topically onto the sensitized eye. Twenty (20) minutes after dosing, rats were challenged intravenously via the lateral tail vein with 1.0 ml of a solution containing OA (1.0 mg/ml) and Evans Blue dye (2.5 mg/ml). Thirty (30) minutes post antigen challenge, animals were killed, skin was reflected, and the size of the resulting wheal and the intensity of the extravasated dye were determined.

[2] = tested on: human skin mast cells; conditions: cited from earlier work
[3] = tested on: mast cells obtained from bronchoalveolar lavage fluid; conditions: 100 μM; cited from earlier work
[4] = tested on: rodent mast cell; conditions: cited from earlier work
[5] = tested on: Human Conjunctival Tissue Mast Cells; assay: Compound effect on histamine release from human conjunctival tissue mast cells upon anti-human IgE challenge; format: cell-based; conditions: for inhibition of human conjunctival mast cell degranulation: statement on Table 1; for inhibition at 500 µM: * p < 0.05 Dunnett's, isomers not significantly different (p > 0.05 Studentized Range), read-out: Inhibition (%) of in-vitro histamine release, isomer comparison
Method: The inhibitory effects of reported anti-allergic, mast cell stabilizing drugs on mast cells obtained from human conjunctiva (the target cells for topical ophthalmic drug preparations claimed useful in treating allergic conjunctivitis) were tested according to the following experimental method. Human conjunctival tissues obtained from organ/tissue donors were weighed and transferred to petri dishes containing RPMI 1640 culture medium supplemented with heat inactivated fetal bovine serum (20%, v/v), L-glutamine (2 mM), penicillin (100 units/ml), streptomycin (100 μg/ml), amphotericin B (2.5 μg/ml) and HEPES (10 mM) and equilibrated overnight at 37° C. (5% CO2).
Post equilibration, tissues were placed in Tyrode's buffer (in mM: 137 NaCl, 2.7 KCl, 0.35 Na H2 PO4, 1.8 CaCl2, 0.98 MgCl2, 11.9 Na HCO3, 5.5 glucose) containing 0.1% gelatin (TGCM) and incubated with 200 U each of collagenase (Type IV) and hyaluronidase (Type I-S) per gram of tissue for 30 minutes at 37° C. Following enzyme digestion, tissues were washed with an equal volume of TGCM over Nitex® filter cloth (Tetko, Briarcliff Manor, N.Y.). Intact tissues were placed in TGCM for further enzymatic digestions.
The flitrate obtained from each digestion was centrifuged (825 g, 7 minutes) and pelleted cells were resuspended in calcium/magnesium free Tyrode's buffer (TG). Pooled cells from all digestions were centrifuged (825 g, 30 minutes) over a […] Percoll® cushion. Mast cell enriched cell pellets were resuspended and washed in TG buffer. Viability and number of mast cells were determined by vital dye exclusion and toluidine blue 0 staining of the harvested cell suspensions. Mast cell containing preparations were placed in supplemented RPMI 1640 culture medium and allowed to equilibrate at 37° C. prior to challenge with anti-human IgE (goat derived IgG antibody).
Cell suspensions containing 5000 mast cells were added to TGCM containing tubes and challenged with anti-human IgE. The final volume of each reaction tube was 1.0 mL. Tubes were incubated at 37° C. for 15 minutes post challenge. The release reaction was terminated by centrifugation (500 g, 7 minutes). Supernatants were collected and stored (-20° C.) until mediator analyses.
Initially, supernatants were analyzed for histamine content by both the automated fluorimetric method described by Siraganian, "An Automated Continuous Flow System for the Extraction and Fluorometric Analysis of Histamine," Anal. Biochem., Vol. 57, 383-94 (1974), and a commercially available radioimmunoassay (RIA) system (AMAC, Inc., Westbrook, Me.). Results from these assays were positively correlated (r=0.999): therefore, the remainder of histamine analyses were performed by RIA.
Each experiment included an anti-human IgE (plus vehicle) positive release control, a spontaneous/vehicle release and a total histamine release control. Total histamine release was determined by treatment with Triton X-100® (0.1%). The experiments also included a non-specific goat IgG control. Test compounds are administered to the mast cell cultures either 1 or 15 minutes before stimulation with anti-human IgE. Inhibition of histamine release resulting from challenge of drug treated mast cells was determined by direct comparison with histamine release from vehicle treated, anti-IgE challenged mast cells using Dunnett's t-test (Dunnett, "A multiple comparison procedure for comparing treatments with a control, " J. Amer. Stat Assoc., Vol. 50, 1096-1121 (1955)).
Dunnett's t-test, is a statistical test which compares multiple treatment groups with one control group. In the assay described above, histamine released from drug treated mast cells are compared to histamine released from the anti-human IgE plus vehicle treated mast cells which serve as the positive control. Statistically significant inhibition is determined using this procedure. The probability level of 0.05 is accepted as the level of significance in biomedical research. […]

[6] = Homo sapiens, Mast cell, 1 min, treatment 1 min
[7] = Homo sapiens, Mast cell, 0.25 h, treatment 15 min
[8] = Homo sapiens, Mast cell, 0.25 h, treatment 15 min, * p < 0.05 Dunnett's t-test

In the case of CN(C)CC/C=C1/c2ccccc2COc2ccc(C(=O)O)cc21 [Compound B, (Z)11-(3-Dimethylaminopropylidene)-6,11-dihydrodibenz[b,e]oxepin2-carboxylic acid], the “% Change (permeability score)” value [1] is reported as -55%.

In the case of O=C(O)c1cc(=O)c2c(OCC(O)COc3cccc4oc(C(=O)O)cc(=O)c34)cccc2o1 [Cromolyn sodium], the “inhibition of histamine release from human skin mast cells” value [2] is listed as “not inhibited at all”, the “inhibition of mast cells from bronchoalveolar lavage fluid” value [3] is listed as “inhibited” and the “inhibition of rodent mast cell degranulation” value [4] is listed as “inhibit rodent mast cell degranulation”. For the same molecule, the inhibition at 10 µM [5, 6] was -0.9%, the inhibition at 30 µM [5, 6] was 0.1% and the inhibition at 100 µM [5, 6] was 1.2%. The inhibition at 300 µM [5, 6] was -1.8%, the inhibition at 1000 µM [5, 6] was -9.4% and the inhibition at 10 µM [5, 7] was 10.6%. It also gave an inhibition at 30 µM [5, 7] of 1.8%, an inhibition at 100 µM [5, 8] of -1.2% and an inhibition at 300 µM [5, 8] of -6.9%. The inhibition at 1000 µM [5, 8] was -15.4% and the “inhibition of human conjunctival mast cell degranulation” value [5] was “failed to significantly inhibit human conjunctival mast cell degranulation”.

Work on CCCc1c2oc(C(=O)O)cc(=O)c2cc2c(=O)cc(C(=O)O)n(CC)c12 [Nedocromil sodium] yielded an inhibition at 0.1 µM [5, 6] of 17.4%, an inhibition at 0.3 µM [5, 6] of 8.8% and an inhibition at 1 µM [5, 6] of 4.8%. For the same molecule, the inhibition at 3 µM [5, 6] was 0.8%, the inhibition at 10 µM [5, 6] was -6.5% and the inhibition at 30 µM [5, 6] was -0.9%. It also gave an inhibition at 100 µM [5, 6] of 6.7%, an inhibition at 300 µM [5, 6] of 4% and an inhibition at 1000 µM [5, 6] of -1.1%. For the same molecule, the inhibition at 0.1 µM [5, 7] was 8.7%, the inhibition at 0.3 µM [5, 7] was 3.7% and the inhibition at 1 µM [5, 7] was 10.7%. It also gave an inhibition at 3 µM [5, 7] of 13.2%, an inhibition at 10 µM [5, 7] of 9.2% and an inhibition at 30 µM [5, 7] of 15.2%. The inhibition at 100 µM [5, 8] was 28.2%, the inhibition at 300 µM [5, 8] was 11.3% and the inhibition at 1000 µM [5, 8] was 7.2%. The “inhibition of human conjunctival mast cell degranulation” value [5] was “failed to significantly inhibit human conjunctival mast cell degranulation”.

In the case of CN(C)CC/C=C1/c2ccccc2COc2ccc(CC(=O)O)cc21 [Compound A (cis), Z-11-(3-dimethylaminopropylidene)-6,11-dihydrodibenz[b,e]oxepin-2-acetic acid], the inhibition at 500 µM [5, 7] is reported as 29.7% and the “inhibition of human conjunctival mast cell degranulation” value [5] is reported as “concentration-dependent inhibition of mast cell degranulation”.

CN(C)CC/C=C1/c2ccccc2COc2ccc(CC(=O)O)cc21 [Compound A, 11-(3-dimethylaminopropylidene)-6,11-dihydrodibenz[b,e]oxepin-2-acetic acid] gave an inhibition at 30 µM [5, 7] of -3.9%, an inhibition at 100 µM [5, 8] of 13% and an inhibition at 300 µM [5, 8] of 29.6%. The inhibition at 600 µM ([5]; Homo sapiens, Mast cell, 0.25 h, 600 μM, treatment 15 min, * p < 0.05 Dunnett's t-test) was 47.5%, the inhibition at 1000 µM [5, 8] was 66.7% and the inhibition at 2000 µM ([5]; Mast cell, 2000 μM, treatment 15 min before anti-human IgE, * p < 0.05 Dunnett's t-test) was 92.6%.

Molecule CN(C)CC/C=C1\c2ccccc2COc2ccc(CC(=O)O)cc21 [Compound A (trans), E-11-(3-dimethylaminopropylidene)-6,11-dihydrodibenz[b,e]oxepin-2-acetic acid] has an inhibition at 500 µM [5, 7] of 26.2%.

For CN(C)CCC=C1c2ccccc2COc2ccc(/C=C\C(=O)O)cc21 [Compound C, (Z)11-(3-Dimethylaminopropylidene)-6,11-dihydrodibenz[b,e]oxepin2-acrylic acid], the “% Change (permeability score)” value [1] was -53%.
